The source of these data is patent US8741934B2, “Inhibitors of ion channels” (Pfizer Limited, priority 2007, dated 2014).

For the test, the target named is T1, hSCN3A sodium channels (Homo sapiens, UniProt Q9NY46).
T1 construct: expressed in transfected cells
T1 sequence (Q9NY46 whole entry): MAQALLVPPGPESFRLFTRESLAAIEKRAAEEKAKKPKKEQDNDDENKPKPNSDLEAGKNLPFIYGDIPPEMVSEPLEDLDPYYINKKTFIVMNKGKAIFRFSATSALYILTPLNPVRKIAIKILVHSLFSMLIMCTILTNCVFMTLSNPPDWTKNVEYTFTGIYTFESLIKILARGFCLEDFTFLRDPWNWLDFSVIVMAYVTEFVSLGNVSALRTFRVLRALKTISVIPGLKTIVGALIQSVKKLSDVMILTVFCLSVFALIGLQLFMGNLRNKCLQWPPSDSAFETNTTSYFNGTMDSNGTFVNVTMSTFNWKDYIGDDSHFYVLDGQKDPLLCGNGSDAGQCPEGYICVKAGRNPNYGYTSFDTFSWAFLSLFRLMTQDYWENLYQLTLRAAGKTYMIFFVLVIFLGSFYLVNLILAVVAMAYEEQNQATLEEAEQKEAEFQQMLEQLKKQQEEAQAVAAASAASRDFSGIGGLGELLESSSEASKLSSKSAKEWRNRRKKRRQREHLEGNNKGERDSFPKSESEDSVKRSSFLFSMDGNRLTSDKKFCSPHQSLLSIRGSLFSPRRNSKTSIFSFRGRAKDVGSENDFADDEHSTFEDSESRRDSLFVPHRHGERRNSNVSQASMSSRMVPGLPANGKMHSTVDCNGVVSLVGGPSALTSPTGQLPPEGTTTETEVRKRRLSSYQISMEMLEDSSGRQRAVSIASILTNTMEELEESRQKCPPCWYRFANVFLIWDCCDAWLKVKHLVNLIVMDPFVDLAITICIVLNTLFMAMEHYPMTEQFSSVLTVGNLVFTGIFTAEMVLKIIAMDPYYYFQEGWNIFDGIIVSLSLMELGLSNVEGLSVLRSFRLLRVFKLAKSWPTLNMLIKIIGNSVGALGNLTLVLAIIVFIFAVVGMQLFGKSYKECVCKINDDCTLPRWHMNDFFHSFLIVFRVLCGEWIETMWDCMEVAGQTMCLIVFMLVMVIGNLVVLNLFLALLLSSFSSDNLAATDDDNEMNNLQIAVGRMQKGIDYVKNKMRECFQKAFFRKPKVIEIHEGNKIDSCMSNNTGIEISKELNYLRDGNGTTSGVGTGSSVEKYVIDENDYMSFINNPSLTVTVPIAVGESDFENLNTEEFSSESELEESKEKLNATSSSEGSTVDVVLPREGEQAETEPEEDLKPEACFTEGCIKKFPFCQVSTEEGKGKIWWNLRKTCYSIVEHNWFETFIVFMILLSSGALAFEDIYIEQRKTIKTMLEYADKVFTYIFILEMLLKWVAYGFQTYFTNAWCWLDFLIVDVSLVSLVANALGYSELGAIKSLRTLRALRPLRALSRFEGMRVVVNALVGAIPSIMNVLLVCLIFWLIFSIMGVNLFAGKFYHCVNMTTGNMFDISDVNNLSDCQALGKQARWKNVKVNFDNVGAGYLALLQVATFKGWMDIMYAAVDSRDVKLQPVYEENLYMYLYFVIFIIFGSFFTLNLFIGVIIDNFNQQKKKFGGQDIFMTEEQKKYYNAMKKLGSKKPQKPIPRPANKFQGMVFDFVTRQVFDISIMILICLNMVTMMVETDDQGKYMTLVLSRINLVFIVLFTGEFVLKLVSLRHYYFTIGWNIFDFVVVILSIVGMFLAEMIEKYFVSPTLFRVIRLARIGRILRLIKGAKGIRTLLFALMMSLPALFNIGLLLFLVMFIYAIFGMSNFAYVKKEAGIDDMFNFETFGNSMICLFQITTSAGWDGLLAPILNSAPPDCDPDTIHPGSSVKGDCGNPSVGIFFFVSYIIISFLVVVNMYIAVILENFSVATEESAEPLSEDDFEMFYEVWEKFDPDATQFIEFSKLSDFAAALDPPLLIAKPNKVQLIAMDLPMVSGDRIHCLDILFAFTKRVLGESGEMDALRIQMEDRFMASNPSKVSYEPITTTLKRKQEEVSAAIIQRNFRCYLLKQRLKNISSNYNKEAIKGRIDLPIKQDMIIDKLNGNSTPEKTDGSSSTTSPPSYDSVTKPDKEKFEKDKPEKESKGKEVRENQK
Kind of test: hSCN3A electrophysiology, whole-cell patch-clamp or PatchXpress 7000, estimated IC-50 (Table B). The format is cell-based. The following applies: estimated IC-50; hSCN3A cells, whole-cell patch-clamp or PatchXpress 7000; read-out: SCN3A EIC-50. The method in brief:
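A 20 msec test pulse to 0 mV followed an 8 sec conditioning prepulse at each cell's measured V1/2. Room-temperature (22-24° C) recordings on HEK cells stably expressing the channel, conventional or PatchXpress.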
Regarding `O=C(NCc1cccc(C(F)(F)F)c1F)c1ccc(S(=O)(=O)Nc2ncc(Cl)s2)cc1` [Example 40, 4-{[(5-Chloro-1,3-thiazol-2-yl)amino]sulfonyl}-N-[2-fluoro-3-(trifluoromethyl)benzyl]benzamide], the IC50 was 210 nM.

On to `O=C(NCCc1cccc(C(F)(F)F)c1)c1ccc(S(=O)(=O)Nc2nccs2)cc1` [Example 74, 4-[(1,3-Thiazol-2-ylamino)sulfonyl]-N-{2-[3-(trifluoromethyl)phenyl]ethyl}benzamide], for which the IC50 was 540 nM. As for `O=C(N[C@H]1C[C@@H]1c1ccccc1)c1ccc(S(=O)(=O)Nc2ncc(Cl)s2)cc1` [Example 42, 4-{[(5-Chloro-1,3-thiazol-2-yl)amino]sulfonyl}-N-[(1S,2R)-2-phenylcyclopropyl]benzamide], the figure is 510 nM; as for `O=C(NCc1ccc(C(F)(F)F)c(F)c1)c1ccc(S(=O)(=O)Nc2ncc(Cl)s2)cc1` [Example 31, 4-{[(5-Chloro-1,3-thiazol-2-yl)amino]sulfonyl}-N-[3-fluoro-4-(trifluoromethyl)benzyl]benzamide], 70 nM; as for `O=C(NCc1ccc(OC(F)(F)F)c(F)c1)c1ccc(S(=O)(=O)Nc2nccs2)c(Cl)c1` [Example 286, 3-Chloro-N-[3-fluoro-4-(trifluoromethoxy)benzyl]-4-[(1,3-thiazol-2-yl-amino)sulfonyl]benzamide], 140 nM. As for `O=C(NCc1ccc(OC(F)(F)F)cc1)c1ccc(S(=O)(=O)Nc2nccs2)c(F)c1` [Example 301, 3-Fluoro-4-[(1,3-thiazol-2-ylamino)sulfonyl]-N-[4-(trifluoromethoxy)benzyl]benzamide], the figure is 180 nM; as for `O=C(NCc1ccc(F)c(C(F)(F)F)c1)c1ccc(S(=O)(=O)Nc2ncc(Cl)s2)c(F)c1` [Example 316, 4-{[(5-Chloro-1,3-thiazol-2-yl)amino]sulfonyl}-3-fluoro-N-[4-fluoro-3-(trifluoromethyl)benzyl] benzamide], 140 nM. With `O=C(c1ccc(S(=O)(=O)Nc2nccs2)cc1)N1CCCC(Cc2ccc(F)cc2)C1` (stereo not shown) [Example 222, 4-{[3-(4-Fluorobenzyl)piperidin-1-yl]carbonyl}-N-1,3-thiazol-2-yl-benzenesulfonamide] the figure was 980 nM; with `O=C(NCc1ccc(OC(F)(F)F)cc1)c1ccc(S(=O)(=O)Nc2ncc(Cl)s2)cc1` [Example 45, 4-{[(5-Chloro-1,3-thiazol-2-yl)amino]sulfonyl}-N-[4-(trifluoromethoxy)benzyl]benzamide], 70 nM; with `Cc1cc(CC(NC(=O)c2ccc(S(=O)(=O)Nc3nccs3)cc2)c2cccc(Cl)c2)on1` (stereo not shown) [Example 136, N-[1-(3-chlorophenyl)-2-(3-methylisoxazol-5-yl)ethyl]-4-[(1,3-thiazol-2-ylamino)sulfonyl]benzamide], 4260 nM. Take `O=C(NCc1ccc(F)c(Cl)c1)c1ccc(S(=O)(=O)Nc2nccs2)cc1` [Example 401, N-(3-chloro-4-fluorobenzyl)-4-[(1,3-thiazol-2-ylamino)sulfonyl] benzamide]: the IC50 is 170 nM. With `O=C(NCc1ccc(F)c(C(F)(F)F)c1)c1ccc(S(=O)(=O)Nc2ncc(Cl)s2)cc1F` [Example 353, 4-{[(5-Chloro-1,3-thiazol-2-yl)amino]sulfonyl}-2-fluoro-N-[4-fluoro-3-(trifluoromethyl)benzyl]benzamide] the figure was 220 nM. For “4-[(1,3-Thiazol-2-ylamino)sulfonyl]-N-(4-isopropyloxybenzyl)benzamide [Example 69]”, the IC50 is 770 nM.

With `O=C(NCCOc1ccccc1Cl)c1ccc(S(=O)(=O)Nc2nccs2)cc1` [Example 148, N-[2-(2-chlorophenoxy)ethyl]-4-[(1,3-thiazol-2-ylamino)sulfonyl]benzamide], the IC50 was 2500 nM. With `COc1ccccc1C1CCCN1C(=O)c1ccc(S(=O)(=O)Nc2nccs2)cc1` (stereo not shown) [Example 254, 4-{[2-(2-Methoxyphenyl)pyrrolidin-1-yl]carbonyl}-N-1,3-thiazol-2-yl-benzenesulfonamide] the figure was greater than 1000 nM; with `O=C(NCc1ccccc1SC(F)(F)F)c1ccc(S(=O)(=O)Nc2nccs2)cc1` [Example 122, 4-[(1,3-Thiazol-2-ylamino)sulfonyl]-N-{2-[(trifluoromethyl)thio]benzyl}benzamide], 1300 nM. With `O=C(NCc1ccc(Cl)nc1)c1ccc(S(=O)(=O)Nc2nccs2)cc1` [Example 407, N-[(6-chloropyridin-3-yl)methyl]-4-[(1,3-thiazol-2-ylamino)sulfonyl] benzamide] the figure was 1780 nM; with `Cc1nsc(NS(=O)(=O)c2ccc(C(=O)NCc3ccc(C(F)(F)F)cc3)cc2)n1` [Example 6, 4-{[(3-Methyl-1,2,4-thiadiazol-5-yl)amino]sulfonyl}-N-[4-(trifluoromethyl)benzyl]benzamide], 1110 nM.

With `O=C(NCc1ccc(F)c(OC(F)(F)F)c1)c1ccc(S(=O)(=O)Nc2ncc(Cl)s2)cc1F` [Example 358, 4-{[(5-Chloro-1,3-thiazol-2-yl)amino]sulfonyl}-2-fluoro-N-[4-fluoro-3-(trifluoromethoxy)benzyl]benzamide], the IC50 was 370 nM. With `O=C(NC1Cc2ccccc2C1)c1ccc(S(=O)(=O)Nc2nccs2)cc1` [Example 173, N-(2,3-dihydro-1H-inden-2-yl)-4-[(1,3-thiazol-2-ylamino)sulfonyl]benzamide] the figure was 2670 nM. With `O=C(NCc1ccc(Cl)c(Cl)c1)c1ccc(S(=O)(=O)Nc2nccs2)c(Cl)c1` [Example 291, 3-Chloro-N-(3,4-dichlorobenzyl)-4-[(1,3-thiazol-2-ylamino)sulfonyl]benzamide] the figure was 710 nM; with `O=C(NCc1ccc(OC(F)(F)F)cc1)c1ccc(S(=O)(=O)Nc2nccs2)c(Cl)c1` [Example 284, 3-Chloro-4-[(1,3-thiazol-2-ylamino)sulfonyl]-N-[4-(trifluoromethoxy)benzyl]benzamide], 1220 nM. With `O=C(NCc1cccc(-n2cccn2)c1)c1ccc(S(=O)(=O)Nc2nccs2)cc1` [Example 59, N-[3-(1H-pyrazol-1-yl)benzyl]-4-[(1,3-thiazol-2-ylamino)sulfonyl]benzamide] the figure was 1690 nM. Consider `O=C(NCc1ccc(C(F)(F)F)cc1)c1ccc(S(=O)(=O)Nc2nccs2)c(Cl)c1` [Example 287, 3-Chloro-4-[(1,3-thiazol-2-ylamino)sulfonyl]-N-[4-(trifluoromethyl)benzyl]benzamide], for which the IC50 was 220 nM. With `O=C(NCc1ccc(F)cc1C(F)(F)F)c1ccc(S(=O)(=O)Nc2nccs2)cc1` [Example 80, N-[4-fluoro-2-(trifluoromethyl)benzyl]-4-[(1,3-thiazol-2-ylamino)sulfonyl]benzamide] the figure was greater than 100 nM; with `O=C(NC(c1cccc(C(F)(F)F)c1F)C1CC1)c1ccc(S(=O)(=O)Nc2nccs2)cc1` (stereo not shown) [Example 119, N-{cyclopropyl[2-fluoro-3-(trifluoromethyl)phenyl]methyl}-4-[(1,3-thiazol-2-ylamino)sulfonyl]benzamide], 1290 nM; with `O=C(NCc1cccc(C(F)(F)F)c1)c1ccc(S(=O)(=O)Nc2nccs2)c(F)c1` [Example 302, 3-Fluoro-4-[(1,3-thiazol-2-ylamino)sulfonyl]-N-[3-(trifluoromethyl)benzyl]benzamide], 350 nM.

In the case of `O=C(NCc1ccc(C(F)(F)F)c(Cl)c1)c1ccc(S(=O)(=O)Nc2nccs2)cc1` [Example 396, N-[3-chloro-4-(trifluoromethyl)benzyl]-4-[(1,3-thiazol-2-ylamino)sulfonyl] benzamide], the IC50 was 30 nM.

Take `Cn1cc(NS(=O)(=O)c2ccc(C(=O)NCc3ccc(C(F)(F)F)cc3)cc2)cn1` [Example 10, 4-{[(1-Methyl-1H-pyrazol-4-yl)amino]sulfonyl}-N-[4-(trifluoromethyl)benzyl]benzamide]: the IC50 was 1510 nM. As for `O=C(NCc1ccccc1-c1ccccc1)c1ccc(S(=O)(=O)Nc2nccs2)cc1` [Example 415, N-(biphenyl-2-ylmethyl)-4-[(1,3-thiazol-2-ylamino)sulfonyl] benzamide], the figure is 380 nM; as for `N#Cc1ccc(CNC(=O)c2ccc(S(=O)(=O)Nc3nccs3)cc2)cc1` [Example 416, N-(4-cyanobenzyl)-4-[(1,3-thiazol-2-ylamino)sulfonyl] benzamide], 860 nM; as for `O=C(NC1(Cc2ccc(Cl)cc2)CC1)c1ccc(S(=O)(=O)Nc2nccs2)cc1` [Example 134, N-[1-(4-chlorobenzyl)cyclopropyl]-4-[(1,3-thiazol-2-ylamino)sulfonyl]benzamide], 2280 nM. With `Cc1nn(C)c(C)c1NS(=O)(=O)c1ccc(C(=O)NCc2ccc(C(F)(F)F)cc2)cc1` [Example 27, N-[4-(Trifluoromethyl)benzyl]-4-{[(1,3,5-trimethyl-1H-pyrazol-4-yl)amino]sulfonyl}benzamide] the figure was 23300 nM. Take `CC(C)(C)c1ccc(CNC(=O)c2ccc(S(=O)(=O)Nc3nccs3)cc2)cc1` [Example 387, N-(4-tert-butylbenzyl)-4-[(1,3-thiazol-2-ylamino)sulfonyl]benzamide]: the IC50 was 170 nM. With `O=C(NCCc1ccc(C(F)(F)F)cc1)c1ccc(S(=O)(=O)Nc2nccs2)cc1` [Example 101, 4-[(1,3-Thiazol-2-ylamino)sulfonyl]-N-{2-[4-(trifluoromethyl)phenyl]ethyl}benzamide] the figure was 570 nM; with `O=C(NCc1cccc(OC(F)(F)F)c1)c1ccc(S(=O)(=O)Nc2nccs2)c(F)c1` [Example 296, 3-Fluoro-4-[(1,3-thiazol-2-ylamino)sulfonyl]-N-[3-(trifluoromethoxy)benzyl]benzamide], 190 nM; with `O=C(NCc1ccc(F)c(C2CC2)c1)c1ccc(S(=O)(=O)Nc2nccs2)cc1` [Example 54, N-(3-cyclopropyl-4-fluorobenzyl)-4-[(1,3-thiazol-2-ylamino)sulfonyl]benzamide], 120 nM.
